Laboratory results as given in patent US7410986B2, “4-6-diphenyl pyridine derivatives as antiinflammatory agents” (Bayer Aktiengesellschaft, priority 2000, dated 2008).
Where a name gives a salt, the structure may show the parent alone. Read-outs that look alike come from different tables or passages of the source.

Key:
human IKK-β = biological target: T1, human IKK-β (Homo sapiens, UniProt O14920); test: IKK-β kinase inhibitory assay; type: biochemical; conditions: compounds of about 40 to 90% purity, read-out: In vitro activity grade (invitro, IC50)
T1 construct: A cDNA fragment encoding human IKK-β open reading frame was generated by PCR; His; made in house; host or cells: Sf21 insect cells (baculovirus); the GST-IκBα substrate was made in E. coli
T1 sequence (O14920 1-756): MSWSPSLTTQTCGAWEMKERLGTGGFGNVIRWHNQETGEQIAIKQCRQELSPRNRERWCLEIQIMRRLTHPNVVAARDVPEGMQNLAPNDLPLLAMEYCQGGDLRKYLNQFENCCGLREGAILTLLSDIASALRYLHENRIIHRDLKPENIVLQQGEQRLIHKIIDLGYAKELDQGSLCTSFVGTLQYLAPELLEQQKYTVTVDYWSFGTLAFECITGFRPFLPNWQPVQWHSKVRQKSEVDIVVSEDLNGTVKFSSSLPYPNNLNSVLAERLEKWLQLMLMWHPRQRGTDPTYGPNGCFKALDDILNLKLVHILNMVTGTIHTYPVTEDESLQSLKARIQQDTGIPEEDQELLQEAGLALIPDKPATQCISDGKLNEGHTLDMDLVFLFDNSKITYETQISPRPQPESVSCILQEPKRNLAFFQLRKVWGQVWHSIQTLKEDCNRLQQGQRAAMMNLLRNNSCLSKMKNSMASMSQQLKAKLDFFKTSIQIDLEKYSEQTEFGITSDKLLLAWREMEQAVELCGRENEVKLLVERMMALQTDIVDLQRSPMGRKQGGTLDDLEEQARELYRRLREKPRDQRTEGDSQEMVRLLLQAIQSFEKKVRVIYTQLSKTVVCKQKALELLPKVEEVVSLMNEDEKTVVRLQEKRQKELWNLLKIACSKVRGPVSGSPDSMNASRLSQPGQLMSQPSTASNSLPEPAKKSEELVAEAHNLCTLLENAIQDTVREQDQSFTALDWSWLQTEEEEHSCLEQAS
In short: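 His-tagged human IKK-β from baculovirus-infected Sf21 cells (final 0.6 μg/ml) with biotinylated GST-IκBα (1-54) (final 0.2 μM) in Tris-HCl pH 7.6/MgCl2 buffer with 2.5% DMSO compound. Reaction started with ATP plus [γ-^33P] ATP, 2 hrs at room temperature; EDTA-stopped, substrate captured on streptavidin plates and bound radioactivity counted by scintillation.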

[1] = system: RANTES production in response to TNF-α from A549 cells; test: RANTES production in response to TNF-α from A549 cells; type: cell-based, human; conditions: 100 ng/ml TNF-α, compounds of about 40 to 90% purity, read-out: Cellular activity grade (A549, IC50)

IC50 (human IKK-β) [nM] | IC50 ([1]; Homo sapiens, A549, 24 h) [nM] | IC50 ([1]; 24 hrs) [nM] | SMILES
500 to 2000 | > 10000 | – | N#Cc1c(-c2ccc(Cl)c(NC(=O)CCN3CCCCC3)c2)cc(-c2ccccc2O)nc1N [Example 2-18]
500 to 2000 | > 10000 | – | COCC(=O)Nc1cccc(-c2cc(-c3ccccc3O)nc(N)c2C#N)c1 [Example 1-04]
500 to 2000 | > 10000 | – | CCOC(=O)C1CCN(CCC(=O)Nc2cccc(-c3cc(-c4ccccc4O)nc(N)c3C#N)c2)CC1 [Example 4-26]
500 to 2000 | 1000 to 10000 | – | N#Cc1c(-c2ccc(N3CCCC3)c(NC(=O)CCN3CCCCC3)c2)cc(-c2ccccc2O)nc1N [Example 3-1, N-[5-[2-amino-3-cyano-6-(2-hydroxyphenyl)-4-pyridinyl]-2-(1-pyrrolidinyl)phenyl]-3-(1-piperidinyl)propanamide hydrochloride]
< 500 | 1000 to 10000 | – | N#Cc1c(-c2ccc(N3CCCCC3)c(NC(=O)CCN)c2)cc(-c2ccccc2O)nc1N [Example 3-03]
2000 to 10000 | 1000 to 10000 | – | CCN(CC)c1ccc(-c2cc(-c3ccccc3O)nc(N)c2C#N)cc1NC(=O)CCN1CCCCC1 [Example 3-13]
500 to 2000 | 1000 to 10000 | – | CCN1CCC(N(CC)CCC(=O)Nc2cccc(-c3cc(-c4ccccc4O)nc(N)c3C#N)c2)C1 (centres unmarked) [Example 4-16]
500 to 2000 | 1000 to 10000 | – | N#Cc1c(-c2cccc(NC(=O)CCN3CCN(CCO)CC3)c2)cc(-c2ccccc2O)nc1N [Example 4-13]
< 500 | 1000 to 10000 | – | N#Cc1c(-c2cccc(O)c2)cc(-c2ccccc2O)nc1N [Example 1-23]
500 to 2000 | 1000 to 10000 | – | CN1CCN(CCC(=O)Nc2cccc(-c3cc(-c4ccccc4O)nc(N)c3C#N)c2)CC1 [Example 4-10]
> 10000 | 1000 to 10000 | – | N#Cc1c(-c2ccc(Cl)c(N)c2)cc(-c2ccccc2O)nc1N [Example 2-19]
500 to 2000 | 1000 to 10000 | – | Nc1nc(-c2ccccc2O)cc(-c2cccc(NC(=O)CCN3CCCCC3)c2)c1CO [Example 7-3, N-{3-[2-amino-3-(hydroxymethyl)-6-(2-hydroxyphenyl)-4-pyridinyl]phenyl}-3-(1-piperidinyl)propanamide]
500 to 2000 | – | > 10000 | N#Cc1c(-c2cccc(NC(=O)C3CCC(=O)O3)c2)cc(-c2ccccc2O)nc1N (centres unmarked) [Example 1-03]
> 10000 | > 10000 | – | Cc1ccc(O)c(-c2cc(-c3cccc(NC(=O)C4CCC(=O)O4)c3)c(C#N)c(N)n2)c1 (centres unmarked) [Example 1-11]
500 to 2000 | > 10000 | – | N#Cc1c(-c2cccc(NC(=O)C(O)CCC(=O)O)c2)cc(-c2ccccc2O)nc1N (centres unmarked) [Example 1-2, Sodium 5-({3-[2-amino-3-cyano-6-(2-hydroxyphenyl)-4-pyridinyl]phenyl}amino)-4-hydroxy-5-oxopentanoate]
500 to 2000 | 1000 to 10000 | – | N#Cc1c(-c2ccc(N3CCOCC3)c(NC(=O)CCN)c2)cc(-c2ccccc2O)nc1N [Example 3-06]
500 to 2000 | > 10000 | – | N#Cc1c(-c2ccc(NC(=O)CCN3CCCCC3)cc2)cc(-c2ccccc2O)nc1N [Example 2-05]
500 to 2000 | – | > 10000 | N#Cc1c(-c2cccc(NC(=O)C[C@H](N)C(=O)O)c2)cc(-c2ccccc2O)nc1N [Example 2-02]
500 to 2000 | 1000 to 10000 | – | CN(C)c1ccc(-c2cc(-c3ccccc3O)nc(N)c2C#N)cc1NC(=O)CNCC1CC1 [Example 4-1, N^1-[5-[2-amino-3-cyano-6-(2-hydroxyphenyl)-4-pyridinyl]-2-(dimethylamino)phenyl]-N^2-(cyclopropylmethyl)glycinamide hydrochloride]
